From patent US20190002480A1, “Silane-Containing Heterocyclic Compounds and Methods of Use Thereof for the Treatment of Viral Diseases” (Merck Sharp & Dohme Corp., priority 2015, published 2019)
Like-named read-outs stand apart in the source and are kept apart here.

Assays:
HCV replicon GT2b_31M = assay: Cell-based HCV replicon assay, GT2b 31M; conditions: Hepatitis C virus, 72 h, read-out: GT2b_31M EC90
Method: (§1) To measure cell-based anti-HCV activity of compounds of the present invention, two complimentary assays were employed using various replicons. In the first assay (“Replicon Assay A”), replicon cells were seeded at 2000 cells/well in 384-well 384-well flat bottom tissue culture treated clear bottom plate (Corning 3707) in the presence of the test compound. Various concentrations of test compound, typically in 10 serial dilutions, were added to the assay mixture, with the starting concentration ranging from 333.3 nM to […]. The final concentration of DMSO was 0.5%. Fetal bovine serum was 5%, in the assay media. Cells were harvested on day 3 by removing media and washing the cells with a suitable wash buffer. The cells are lysed with the addition of 1× Qiagen lysis buffer (Cat #1062731). The replicon RNA level was measured using real time PCR (TaqMan® EZ RT-PCR, Applied Biosystems 403028) with the following primers and probes: […]
(§2) Cyclophilin RNA was used as endogenous control and was amplified in the same reaction as NS5B (multiplex PCR). The real-time RT-PCR reactions were run on ABI PRISM 7900HT Sequence Detection System using the following program: 50° C. for 2 minutes, 60° C. for 30 minutes, 95° C. for 5 minutes, 40 cycles of 94 C for 20 sec, 55 C for 1 minutes.
(§3) The amount of HCV replicon RNA per cell is quantified using a linear regression curve for a known nanogram (ng) amount of HCV replicon total RNA. This is established by plotting the Cycle Threshold values (Ct) from the Neo probe and primer set versus the log (ng) for each HCV replicon total RNA standard. The amount of HCV RNA for each replicon sample is calculated by taking the sample's Ct value, minus the line intercept, divided by the slope of the line. Similarly, the amount of Cyclophilin mRNA per cell is also quantified using a linear regression curve for a known nanogram (ng) amount of HCV replicon total RNA. Again, this is established by plotting the Cycle Threshold values (Ct) from the Cyclophilin probe and primer set versus the log (ng) for each HCV replicon total RNA standard.
(§4) In an alternate assay (“Replicon Assay B”), 1000 cells were seeded per well in a 384-well collagen coated black plate from Greiner bio-one (Cat #781946) in 5% FBS. Inhibitors of this invention were added at 24 h post-seeding, and the plates were incubated for 3 days. Cells were subsequently lysed with Qiagen lysis buffer (Cat #1062731) to extract the RNA. HCV replicon RNA level was measured by real-time PCR using the RNA-to-CT kit from Applied Biosystem (Cat #4392656) and genotype-specific primers and probes. The amplicon was located within NS5B. The sequence of the PCR primers are as follows: 5B.2F, ATGGACAGGCGCCCTGA (SEQ. ID NO. 1); 5B.2R, […] (SEQ. ID NO. 2); the probe sequence was FAM-labeled CACGCCATGCGCTGCGG (SEQ. ID NO. 3). To detect genotype 1A the primer 1A F, TGCGGAACCGGTGAGTACA and 1A R, […] were used; the probe sequence was FAM-[…].
(§5) The real-time RT-PCR reactions were run on ABI PRISM 7900HT or Viia7 Sequence Detection System using the following program: 48° C. for 30 minutes, 95 C for 10 minutes, 40 cycles of 95 C for 15 sec, 60 C for 1 minutes. The 50% effective concentration (EC50) was the drug concentration necessary to achieve an increase in the cycle threshold (CT) of 1 over the projected baseline CT. The EC90 was the drug concentration necessary to achieve an increase in CT of 3.2 over the projected baseline CT.

HCV replicon GT4 = assay: Cell-based HCV replicon assay, GT4; conditions: Hepatitis C virus, GT4, 72 h; replicon RNA level by real-time PCR, 3 days
Method: as §1, §2, §3, §4, §5

HCV replicon GT1a_L31V = assay: Cell-based HCV replicon assay, GT1a L31V; conditions: Hepatitis C virus, 72 h, read-out: GT1a_L31V EC90
Method: as §1, §2, §3, §4, §5

HCV replicon GT5 = assay: Cell-based HCV replicon assay, GT5; conditions: Hepatitis C virus, GT5, 72 h; replicon RNA level by real-time PCR, 3 days
Method: as §1, §2, §3, §4, §5

HCV replicon GT1b_WT = assay: Cell-based HCV replicon assay, GT1b WT; conditions: Hepatitis C virus, 72 h, read-out: GT1b_WT EC90
Method: as §1, §2, §3, §4, §5

HCV replicon GT1a_Y93H = assay: Cell-based HCV replicon assay, GT1a Y93H; conditions: Hepatitis C virus, 72 h, read-out: GT1a_Y93H EC90
Method: as §1, §2, §3, §4, §5

HCV replicon GT6 = assay: Cell-based HCV replicon assay, GT6; conditions: Hepatitis C virus, GT6, 72 h; replicon RNA level by real-time PCR, 3 days
Method: as §1, §2, §3, §4, §5

HCV replicon GT1a_Q30R = assay: Cell-based HCV replicon assay, GT1a Q30R; conditions: Hepatitis C virus, 72 h, read-out: GT1a_Q30R EC90
Method: as §1, §2, §3, §4, §5

HCV replicon GT2a = assay: Cell-based HCV replicon assay, GT2a; conditions: Hepatitis C virus, 72 h, read-out: GT2a EC90
Method: as §1, §2, §3, §4, §5

HCV replicon GT3a_Y93H = assay: Cell-based HCV replicon assay, GT3a Y93H; conditions: Hepatitis C virus, 72 h, read-out: GT3a_Y93H EC90
Method: as §1, §2, §3, §4, §5

HCV replicon GT3a_WT = assay: Cell-based HCV replicon assay, GT3a WT; conditions: Hepatitis C virus, 72 h; replicon RNA level by real-time PCR, 3 days
Method: as §1, §2, §3, §4, §5

HCV replicon Gt1a_WT = assay: Cell-based HCV replicon assay, GT1a WT; conditions: Hepatitis C virus, 72 h; replicon RNA level by real-time PCR, 3 days
Method: as §1
(§6) The amount of HCV replicon RNA per cell is quantified using a linear regression curve for a known nanogram (ng) amount of HCV replicon total RNA. […] The amount of HCV RNA for each replicon sample is calculated by taking the sample's Ct value, minus the line intercept, divided by the slope of the line. Similarly, the amount of Cyclophilin mRNA per cell is also quantified using a linear regression curve for a known nanogram (ng) amount of HCV replicon total RNA. […]

HCV replicon GT1a_M28V = assay: Cell-based HCV replicon assay, GT1a M28V; conditions: Hepatitis C virus, 72 h, read-out: GT1a_M28V EC90
Method: as §1, §6

[1] = replicon RNA level by real-time PCR, 3 days

COC(=O)NC(C(=O)N1CCC[C@H]1c1ncc(-c2ccc3c(c2)cc2n3[C@H](c3cnc(C4CC4)s3)Oc3cc(-c4cnc([C@@H]5C[Si](C)(C)CN5C(=O)[C@@H](NC(=O)OC)C5CCC(F)(F)CC5)[nH]4)cc(F)c3-2)[nH]1)C(C)C (some centres unmarked) [Compound 9]
EC90 (HCV replicon GT2b_31M): 4.24 nM | EC90 (HCV replicon GT4): 0.00137 nM | EC90 (HCV replicon GT1a_L31V): 0.026 nM | EC90 (HCV replicon GT5): 0.009 nM | EC90 (HCV replicon GT1b_WT): 0.00108 nM | EC90 (HCV replicon GT1a_Y93H): 0.29 nM | EC90 (HCV replicon GT6): 0.0109 nM | EC90 (HCV replicon GT1a_Q30R): 0.0247 nM | EC90 (HCV replicon GT2a): 0.00243 nM | EC90 (HCV replicon GT3a_Y93H): 322 nM | EC90 (HCV replicon GT3a_WT): 2.24 nM

COC(=O)N[C@H](C(=O)N1CCC[C@H]1c1ncc(-c2cc(F)c3c(c2)O[C@@H](c2ccc(C4CC4)s2)n2c-3cc3cc(-c4cnc([C@@H]5C[Si](C)(C)CN5C(=O)[C@@H](NC(=O)OC)C(C)C)[nH]4)ccc32)[nH]1)C(C)C [Compound 13]
EC90 (HCV replicon GT2b_31M): 0.933 nM | EC90 (HCV replicon GT4): 0.0015 nM | EC90 (HCV replicon GT1a_L31V): 0.0756 nM | EC90 (HCV replicon GT5): 0.0061 nM | EC90 (HCV replicon GT1b_WT): 0.00118 nM | EC90 (HCV replicon GT1a_Y93H): 0.561 nM | EC90 (HCV replicon GT6): 0.0108 nM | EC90 (HCV replicon GT1a_Q30R): 0.0328 nM | EC90 (HCV replicon GT2a): 0.00338 nM | EC90 (HCV replicon GT3a_Y93H): 614 nM | EC90 (HCV replicon GT3a_WT): 0.469 nM

COC(=O)NC(C(=O)N1C[Si](C)(C)C[C@H]1c1ncc(-c2ccc3c(c2)cc2n3[C@H](c3ccc(C4CC4)s3)Oc3cc(-c4cnc([C@@H]5CCCN5C(=O)[C@@H](NC(=O)OC)C(C)C)[nH]4)cc(F)c3-2)[nH]1)C1CCOCC1 (some centres unmarked) [Compound 14]
EC90 (HCV replicon GT2b_31M): 0.038 nM | EC90 (HCV replicon GT4): 0.00111 nM | EC90 (HCV replicon GT1a_L31V): 0.0062 nM | EC90 (HCV replicon GT5): 0.013 nM | EC90 (HCV replicon GT1b_WT): 0.00131 nM | EC90 (HCV replicon GT1a_Y93H): 0.02 nM | EC90 (HCV replicon GT6): 0.0842 nM | EC90 (HCV replicon GT1a_Q30R): 0.0027 nM | EC90 (HCV replicon GT2a): 0.0042 nM | EC90 (HCV replicon GT3a_Y93H): 175 nM | EC90 (HCV replicon GT3a_WT): 0.018 nM

COC(=O)N[C@H](C(=O)N1CCC[C@H]1c1ncc(-c2cc(F)c3c(c2)O[C@@H](c2cnc(C4CC4)s2)n2c-3cc3cc(-c4cnc([C@@H]5C[Si](C)(C)CN5C(=O)[C@@H](NC(=O)OC)[C@@H]5CCOC(C)(C)C5)[nH]4)ccc32)[nH]1)C(C)C [Compound 3]
EC90 (HCV replicon GT2b_31M): 0.431 nM | EC90 (HCV replicon GT4): 0.00112 nM | EC90 (HCV replicon GT1a_L31V): 0.0097 nM | EC90 (HCV replicon GT5): 0.0073 nM | EC90 (HCV replicon GT1b_WT): 0.001 nM | EC90 (HCV replicon GT1a_Y93H): 0.079 nM | EC90 (HCV replicon GT6): 0.0076 nM | EC90 (HCV replicon GT1a_Q30R): 0.008 nM | EC90 (HCV replicon GT2a): 0.00167 nM | EC90 (HCV replicon GT3a_Y93H): 370 nM | EC90 (HCV replicon GT3a_WT): 0.285 nM

COC(=O)N[C@H](C(=O)N1CCC[C@H]1c1ncc(-c2cc(F)c3c(c2)O[C@@H](c2ccc(C4CC4)s2)n2c-3cc3cc(-c4cnc([C@@H]5C[Si](C)(C)CN5C(=O)[C@H](N)c5ccccc5)[nH]4)ccc32)[nH]1)C(C)C [Compound 17]
EC90 (HCV replicon GT2b_31M): 5.33 nM | EC90 (HCV replicon Gt1a_WT): 0.00142 nM | EC90 (HCV replicon GT4): 0.0124 nM | EC90 (HCV replicon GT1a_L31V): 1.76 nM | EC90 (HCV replicon GT5): 0.0527 nM | EC90 (HCV replicon GT1b_WT; [1]): 0.00141 nM | EC90 (HCV replicon GT1a_Y93H): 6.18 nM | EC90 (HCV replicon GT6): 0.105 nM | EC90 (HCV replicon GT1a_Q30R): 0.896 nM | EC90 (HCV replicon GT2a; [1]): 0.0582 nM | EC90 (HCV replicon GT3a_Y93H): 765 nM | EC90 (HCV replicon GT1a_M28V): 0.00192 nM | EC90 (HCV replicon GT3a_WT): 3.28 nM

COC(=O)N[C@H](C(=O)N1CCC[C@H]1c1ncc(-c2ccc3c(c2)cc2n3[C@H](c3cnc(C4CC4)s3)Oc3cc(-c4cnc([C@@H]5C[Si](C)(C)CN5C(=O)[C@@H](NC(=O)OC)C(C)C)[nH]4)cc(F)c3-2)[nH]1)C(C)C [Compound 6]
EC90 (HCV replicon GT2b_31M): 3.04 nM | EC90 (HCV replicon GT4): 0.00135 nM | EC90 (HCV replicon GT1a_L31V): 0.0599 nM | EC90 (HCV replicon GT5): 0.0069 nM | EC90 (HCV replicon GT1b_WT): 0.00116 nM | EC90 (HCV replicon GT1a_Y93H): 0.199 nM | EC90 (HCV replicon GT6): 0.0057 nM | EC90 (HCV replicon GT1a_Q30R): 0.0729 nM | EC90 (HCV replicon GT2a): 0.00339 nM | EC90 (HCV replicon GT3a_Y93H): 118 nM | EC90 (HCV replicon GT3a_WT): 1.32 nM
